Measured values reported in patent US20170035894A1, “DRUG DELIVERY CONJUGATES FOR TREATING RESISTANT CANCER AND FOR USE IN COMBINATION THERAPY” (ENDOCYTE, INC., priority 2014, published 2017).

System: ST024 tumors
Experiment: Ovarian PDX tumor model
Type: in vivo, Balb/c nu/nu mice
Details: combined with Paclitaxel 15 mg/kg
Procedure: Female Balb/c nu/nu mice were fed ad libitum with folate-deficient chow (Harlan diet #TD01013) for the duration of the experiment. Primary human Endometrial model ST040, TNBC models 5T502 and ST738 and Ovarian model ST024 fragments (2-4 mm in diameter) were inoculated subcutaneously at the right flank of each mouse. Mice were randomized into 6 experimental groups of 5 or 3 mice each and test articles were injected through the lateral tail vein under sterile conditions in a volume of 200 μL of phosphate-buffered saline (PBS).
Growth of each s.c. tumor was followed by measuring the tumor two times per week until a volume of 1200 mm^3 was reached. Tumors were measured in two perpendicular directions using Vernier calipers, and their volumes were calculated as 0.5×L×W^2, where L=measurement of longest axis in mm and W=measurement of axis perpendicular to L in mm.

CCCC(=O)OCN(C(=O)[C@@H](NC(=O)[C@H]1CCCCN1C)C(C)CC)[C@H](C[C@@H](OC(C)=O)c1nc(C(=O)N[C@@H](Cc2ccc(O)cc2)C[C@H](C)C(=O)NNC(=O)OCCSSC[C@@H](NC(=O)[C@H](CCC(=O)NC[C@H](O)[C@@H](O)[C@H](O)[C@H](O)CO)NC(=O)[C@@H](CCC(=O)O)NC(=O)[C@H](CCC(=O)NC[C@H](O)[C@@H](O)[C@H](O)[C@H](O)CO)NC(=O)[C@@H](CCC(=O)O)NC(=O)[C@H](CCC(=O)NC[C@H](O)[C@@H](O)[C@H](O)[C@H](O)CO)NC(=O)CC[C@@H](NC(=O)c2ccc(NCc3cnc4nc(N)[nH]c(=O)c4n3)cc2)C(=O)O)C(=O)O)cs1)C(C)C (stereo in doubt) [EC1456]
animals exhibiting cures (EC1456 2 μmol/kg two times a week for two weeks): 100%
animals exhibiting cures (EC1456 4 μmol/kg once a week for two weeks): 100%
